Source: ChEMBL document CHEMBL1201862, “PubChem BioAssay data set” (2004)
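Following 48 hours of exposure in 96-well plates, responses at five concentrations were used to interpolate endpoints linearly. GI50 marks 50% less growth.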 Calls of active or inactive are those of the source. No stated cut-off is given here; in the data, active = GI50 up to about 1.1 µM and inactive = higher.

Experiments:
Assay in all cases: inhibition of tumour cell growth, NCI panel, 48 h
[1] = test system: SN12C
[2] = test system: A549
[3] = test system: SNB-19
[4] = test system: KM12
[5] = test system: UO-31
[6] = test system: COLO 205
[7] = test system: OVCAR-8
[8] = test system: Malme-3M
[9] = test system: OVCAR-4
[10] = test system: IGROV-1
[11] = test system: CCRF-CEM
[12] = test system: UACC-62
[13] = test system: NCI-H23
[14] = test system: SK-MEL-2
[15] = test system: CAKI-1
[16] = test system: LOX IMVI
[17] = test system: HOP-92

SMILES | GI50 [1] | GI50 [2] | GI50 [3] | GI50 [4] | GI50 [5] | GI50 [6] | GI50 [7] | GI50 [8] | GI50 [9] | GI50 [10] | GI50 [11] | GI50 [12] | GI50 [13] | GI50 [14] | GI50 [15] | GI50 [16] | GI50 [17]
CC1CC(c2ccc(Cl)cc2)=Nc2ccccc2S1 (centres undefined) | > 100 µM (inactive) | > 100 µM (inactive) | > 100 µM (inactive) | > 100 µM (inactive) | > 100 µM (inactive) | > 100 µM (inactive) | > 100 µM (inactive) | > 100 µM (inactive) | > 100 µM (inactive) | > 100 µM (inactive) | > 100 µM (inactive) | > 100 µM (inactive) | > 100 µM (inactive) | > 100 µM (inactive) |  |  | 
CSc1ccc(Cc2cc(C(C)(C)C)cc(C(C)(C)C)c2O)cc1 | 15.1 µM (inactive) | 13.6 µM (inactive) | 16.3 µM (inactive) | 11 µM (inactive) | 17 µM (inactive) |  | 16.9 µM (inactive) | 15.2 µM (inactive) | 15.4 µM (inactive) | 13.8 µM (inactive) | 15.5 µM (inactive) | 15.3 µM (inactive) | 14.5 µM (inactive) | 3.88 µM (inactive) | 16.7 µM (inactive) | 10.4 µM (inactive) | 
COC(=O)/C(=N\Nc1nnc(C)n1N)C(C#N)c1ccc(Cl)cc1 (centres undefined) | > 100 µM (inactive) | > 100 µM (inactive) | > 100 µM (inactive) | > 100 µM (inactive) | > 100 µM (inactive) | 95.1 µM (inactive) | > 100 µM (inactive) | > 100 µM (inactive) | > 100 µM (inactive) | > 100 µM (inactive) |  | > 100 µM (inactive) | > 100 µM (inactive) | > 100 µM (inactive) | > 100 µM (inactive) | > 100 µM (inactive) | > 100 µM (inactive)
NC(=S)N/N=C(\C(=O)Nc1ccc(Cl)c(Cl)c1)C1=NN(c2ccccc2)C(c2cccc([N+](=O)[O-])c2)CC1=O (centres undefined) | 16.8 µM (inactive) | 75.2 µM (inactive) | 35.6 µM (inactive) | 85.9 µM (inactive) | 30.3 µM (inactive) | 19 µM (inactive) | 26.7 µM (inactive) | > 100 µM (inactive) | 20 µM (inactive) | 27 µM (inactive) | 17.2 µM (inactive) | 40.8 µM (inactive) | 21.5 µM (inactive) | > 100 µM (inactive) | 79.4 µM (inactive) | 16.3 µM (inactive) | 
N#CC(C(=O)/C(=N\Nc1nc(S)nn1N)C(C#N)c1ccc(Cl)cc1)c1ccc(Cl)cc1 (centres undefined) | > 100 µM (inactive) | > 100 µM (inactive) | > 100 µM (inactive) | > 100 µM (inactive) | > 100 µM (inactive) | > 100 µM (inactive) | > 100 µM (inactive) | > 100 µM (inactive) | > 100 µM (inactive) | > 100 µM (inactive) |  | > 100 µM (inactive) | > 100 µM (inactive) | > 100 µM (inactive) | > 100 µM (inactive) | > 100 µM (inactive) | > 100 µM (inactive)
CC(C)(C)C1=Cc2cc3cc(C(C)(C)C)[nH]c(=O)c3cc2S(=O)(=O)N1 | 42.7 µM (inactive) | 23.2 µM (inactive) | 36.4 µM (inactive) | 30.6 µM (inactive) | 17.1 µM (inactive) | 21.5 µM (inactive) | 39.8 µM (inactive) | 22.4 µM (inactive) | 24.6 µM (inactive) |  | 26.6 µM (inactive) | 18.4 µM (inactive) | 29.9 µM (inactive) | 18.7 µM (inactive) | 12.2 µM (inactive) |  | 16.7 µM (inactive)
CCC/C(=N/NC(=O)C(N)=O)C(CC)C(=O)CCC(=O)N(Cc1ccccc1)Cc1ccccc1 (centres undefined) | > 100 µM (inactive) | > 100 µM (inactive) | > 100 µM (inactive) | > 100 µM (inactive) | > 100 µM (inactive) | > 100 µM (inactive) | > 100 µM (inactive) | > 100 µM (inactive) |  | > 100 µM (inactive) | > 100 µM (inactive) | > 100 µM (inactive) | > 100 µM (inactive) | > 100 µM (inactive) | > 100 µM (inactive) | > 100 µM (inactive) | > 100 µM (inactive)
O=C(N/N=C/c1cc(Br)ccc1O)N/N=C/c1cc(Br)ccc1O | 5.35 µM (inactive) | 1.56 µM (inactive) | 5.31 µM (inactive) | 5.35 µM (inactive) | 0.64 µM (active) | 4.45 µM (inactive) | 2.54 µM (inactive) | 3.64 µM (inactive) | 3.72 µM (inactive) | 2.14 µM (inactive) | 1.4 µM (inactive) | 2.24 µM (inactive) | 2.31 µM (inactive) |  | 2.79 µM (inactive) | 5.85 µM (inactive) | 0.661 µM (active)
CCN1CCN(c2ccc(Nc3ccnc4ccc5nn(C)nc5c34)cc2)CC1 | 10.7 µM (inactive) | 13.8 µM (inactive) | 18.7 µM (inactive) | 10.7 µM (inactive) | 12.8 µM (inactive) | 5.08 µM (inactive) | 9.71 µM (inactive) | 16.9 µM (inactive) | 11.9 µM (inactive) | 18.6 µM (inactive) | > 100 µM (inactive) | 16.9 µM (inactive) | 15.4 µM (inactive) |  | 12.8 µM (inactive) | 7.18 µM (inactive) | 11.9 µM (inactive)
O=C(O)CCc1nn2c(nc1=O)sc1ccc3ccccc3c12 | > 100 µM (inactive) | > 100 µM (inactive) | > 100 µM (inactive) |  | > 100 µM (inactive) | > 100 µM (inactive) | > 100 µM (inactive) | > 100 µM (inactive) | > 100 µM (inactive) | > 100 µM (inactive) | > 100 µM (inactive) | > 100 µM (inactive) | > 100 µM (inactive) |  | > 100 µM (inactive) | > 100 µM (inactive) | > 100 µM (inactive)
Cc1cccc2c(=O)cc(-c3ccccc3)[nH]c12 | 5.42 µM (inactive) | 6.11 µM (inactive) | 7.94 µM (inactive) |  | 15.6 µM (inactive) | 4.36 µM (inactive) |  | 4.09 µM (inactive) | 4.09 µM (inactive) | 7.26 µM (inactive) | 3.62 µM (inactive) | 4.21 µM (inactive) | 4.91 µM (inactive) | 4.6 µM (inactive) |  | 4.58 µM (inactive) | 
COc1ccc2c3c([nH]c2c1[N+](=O)[O-])C(C)=NCC3 | 80.7 µM (inactive) | 77.4 µM (inactive) | > 100 µM (inactive) | 89.3 µM (inactive) | 98.4 µM (inactive) | 15.2 µM (inactive) | 62.7 µM (inactive) |  | > 100 µM (inactive) | 20.9 µM (inactive) | 93.5 µM (inactive) | 19.5 µM (inactive) | > 10 µM (inactive) | > 100 µM (inactive) | 47.1 µM (inactive) | 50.9 µM (inactive) | 
COc1ccc(C(C#N)Cc2cc(OC)c(OC)c(OC)c2)cc1 (centres undefined) | 41.3 µM (inactive) | 30.6 µM (inactive) | 54.2 µM (inactive) | 24 µM (inactive) | 30.8 µM (inactive) | 19.2 µM (inactive) | 37 µM (inactive) | 43.1 µM (inactive) | 39.3 µM (inactive) | 31.9 µM (inactive) | 28.8 µM (inactive) | 27.8 µM (inactive) |  |  | 29.3 µM (inactive) | 28.6 µM (inactive) | 21.7 µM (inactive)
Cc1cc2c(=O)cc(-c3ccncc3)oc2c(C(N)=O)c1C | > 100 µM (inactive) | > 100 µM (inactive) | > 100 µM (inactive) |  | > 100 µM (inactive) | > 100 µM (inactive) | > 100 µM (inactive) | > 100 µM (inactive) |  | > 100 µM (inactive) | > 100 µM (inactive) | 99.8 µM (inactive) | > 100 µM (inactive) | > 100 µM (inactive) |  | > 100 µM (inactive) | > 100 µM (inactive)
CCOC(=O)NC(=O)c1cn(C2OC(COC(=O)CCCCCCCCC(=O)OCC3OC(n4cc(C(=O)NC(=O)OCC)c(=O)[nH]c4=O)C(O)C3O)C(O)C2O)c(=O)[nH]c1=O (centres undefined) | > 100 µM (inactive) | > 100 µM (inactive) | > 100 µM (inactive) | > 100 µM (inactive) | > 100 µM (inactive) |  | > 100 µM (inactive) | > 100 µM (inactive) | > 100 µM (inactive) | > 100 µM (inactive) | > 100 µM (inactive) | > 100 µM (inactive) | > 100 µM (inactive) | > 100 µM (inactive) | > 100 µM (inactive) | > 100 µM (inactive) | 
COC1OC(OC)C2C(c3c(C)cc(C)cc3C)=NOC12 (centres undefined) |  | > 100 µM (inactive) | > 100 µM (inactive) | > 100 µM (inactive) | > 100 µM (inactive) | > 100 µM (inactive) | > 100 µM (inactive) | > 100 µM (inactive) | > 100 µM (inactive) | > 100 µM (inactive) | > 100 µM (inactive) | > 100 µM (inactive) | > 100 µM (inactive) | > 100 µM (inactive) | > 100 µM (inactive) | > 100 µM (inactive) | > 100 µM (inactive)
COc1ccc(/C=N\N2C(=O)Cc3ccccc32)cc1 |  | > 100 µM (inactive) | > 100 µM (inactive) | > 100 µM (inactive) | 39.3 µM (inactive) | > 100 µM (inactive) | > 100 µM (inactive) | > 100 µM (inactive) | > 100 µM (inactive) | > 100 µM (inactive) | > 100 µM (inactive) | > 100 µM (inactive) | > 100 µM (inactive) | > 100 µM (inactive) | > 100 µM (inactive) | > 100 µM (inactive) | 22.3 µM (inactive)
